Source: patent US11247976B2, “Synthetic ligands that modulate the activity of the RhlR quorum sensing receptor” (Wisconsin Alumni Research Foundation, priority 2016, dated 2022)

Biological target: T1, RhlR (Pseudomonas aeruginosa, UniProt P54292)
T1 construct: expressed in transfected cells; host or cells: E. coli JLD271 (ΔsdiA) with pJN105R2 (arabinose-induced) and pSC11-rhlI*
Test: E. coli RhlR reporter agonism assay (JLD271/pJN105R2/pSC11-rhlI*)
Type: cell-based, P. aeruginosa
Settings: not given
Description: (§1) All media and reagents for bacterial culture were purchased from commercial sources. Bacteria were cultured in Luria-Bertani broth (LB) at 37° C. with shaking at 200 rpm unless otherwise noted. The bacterial reporter strains used for this study were (i) the heterologous E. coli strain JLD271 (ΔsdiA) harboring the RhlR expression plasmid pJN105R2 and the rhlI-lacZ transcriptional fusion reporter pSC11-rhlI*, (ii) the heterologous E. coli strain JLD271 (ΔsdiA) harboring the LasR expression plasmid pJN105L and the […] transcriptional fusion reporter pSC11, and (iii) the P. aeruginosa strain PAO-JP2 (ΔlasrhlI) harboring the rhlI-gfp transcriptional fusion reporter prhlI-LVAgfp. Reporter strains JLD271/pJN105R2/pSC11-rhlI* and JLD271/pJN105L/pSC11 were grown in LB containing 100 μg/mL ampicillin and 10 μg/mL gentamicin. Freezer stocks of bacterial strains were maintained at −80° C. in 1:1 LB:50% glycerol.
(§2) To evaluate the modulatory activities of library compounds on RhlR and LasR using E. coli reporters, the strains JLD271/pJN105R2/pSC11-rhlI* and JLD271/pJN105L/pSC11 were used, respectively, as previously described.^38, 51 The following modifications were used in the RhlR agonism reporter assay, non-native compounds (10 μM or 1 mM) were compared to 1 mM BHL as the positive control. Briefly, a subculture was prepared by diluting an overnight culture 1:10 with fresh media containing 100 μg/mL ampicillin and 10 μg/mL gentamicin, and was incubated until it had grown to OD600=0.45. In all assays, L-arabinose was added to a final concentration of 4 mg/mL to induce RhlR expression. For RhlR agonism assays, activities of test compounds were measured relative to 1 mM BHL (the concentration required to induce a maximal level of RhlR activity). For RhlR antagonism assays, test compounds were competed against a concentration of BHL approximately equal to its EC50 value (10 μM). Activity was measured relative to 10 μM BHL. Inhibition was calculated by subtracting 100% from the relative activity value. Thus, 0% inhibition mimics represents no competitive displacement of 10 μM BHL by a test compound. In all assays, modifications were made to the standard Miller assay protocol to accommodate the use of the chlorophenol red-β-D-galactopyranoside (CPRG) β-galactosidase substrate. After cell lysis, 150 μL of the aqueous layer was transferred from each well of a solvent-resistant 96-well microtiter plate to the wells of a new clear, flat-bottom 96-well microtiter plate. CPRG (4 mg/mL in phosphate-buffered saline) was added to each well in 25 μL volumes. Plates were incubated at 30° C. until the positive control wells developed a red color (approximately 30 min). The amount of processed CPRG substrate was assessed by measuring the absorbance of each well at 570 nm. Enzymatic activity was calculated using the following equation: adjusted Miller units=1000·Abs570/(OD600·t·V),
(§3) where t is the incubation time of substrate with lysate and V is the volume of culture lysed.
Because LuxR-type receptors are often unstable in solution, preventing the use of in vitro assays to directly assess small molecule agonism and antagonism, reporter gene assays represent a standard method for screening small-molecule libraries for LuxR-type receptor modulation. Previously reported strains for this purpose were used in the current study.^38 Synthetic N-butanoyl L-homoserine lactone (BHL), the native ligand of RhlR, was used as the positive control for receptor activation. Commonly, agonists are measured relative to maximum possible receptor activation within a particular assay medium;^40 because the dose-response curve of BHL is distinctly shallow in these RhlR reporters, a high concentration of BHL is required to maximally activate RhlR. In this study, activation of compounds was measured relative to that elicited by 1 mM BHL (the concentration of BHL used causes no aberrant growth effects in the reporter strain). […]

T1 sequence (P54292 whole entry): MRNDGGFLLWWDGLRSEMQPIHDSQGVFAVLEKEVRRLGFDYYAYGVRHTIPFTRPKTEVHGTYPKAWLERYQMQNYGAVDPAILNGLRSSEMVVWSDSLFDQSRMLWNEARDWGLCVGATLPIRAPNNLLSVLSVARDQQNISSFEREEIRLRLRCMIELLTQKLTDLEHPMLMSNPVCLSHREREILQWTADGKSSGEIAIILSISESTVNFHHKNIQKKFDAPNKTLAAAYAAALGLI

Going from `O=C(CC1CC1)N[C@H]1CCOC1=O` [Compound J25] to `CCCCC(=O)N[C@H]1CCOC1=O` [Compound C5-AHL], the EC50 rises from 2.76 µM to 10.8 µM (3.9-fold). The first is the more potent here.

First: CC(C)C(=O)N[C@H]1CCOC1=O [Compound J17]
Second: CCC(C)C(=O)N[C@H]1CCOC1=O (stereo partly shown) [Compound J19]
The EC50 of the first is 1.6-fold lower: 4.89 µM for the first, 7.77 µM for the second.

Same assay, conditions: compound at 10 μM; RhlR activity relative to 1 mM BHL; E. coli reporter

Going from `O=C(COc1ccc(I)cc1)NC1CCCC1` [RN17] to `O=C(CC1CC1)N[C@H]1CCOC1=O` [Compound J25], the activation at 10 µM rises from 1% to 70%.

First: CCCC(=O)O[C@H]1CCOC1=O [RN7]
Second: CCCC(=O)N[C@@H]1CCOC1=O [RN5]
The activation at 10 µM of the first is lower: 0% for the first, 2% for the second.

Going from `C=CCC(=O)N[C@H]1CCOC1=O` [Compound J2] to `CCCCC(=O)N[C@H]1CCOC1=O` [Compound C5-AHL], the activation at 10 µM rises from 39% to 53%.

First: CCCS(=O)(=O)N[C@H]1CCOC1=O [RN6]
Second: CCC(CC)C(=O)N[C@H]1CCOC1=O [Compound J22]
The activation at 10 µM of the first is lower: 1% for the first, 28% for the second.

First: CC1(C(=O)N[C@H]2CCOC2=O)CC1 [Compound J27, 1-methyl-cylclopropanoyl AHL]
Second: O=C(N[C@H]1CCOC1=O)C1CC1 [Compound J23]
The activation at 10 µM of the first is lower: 2% for the first, 32% for the second.

Going from `CC(C)C(=O)N[C@H]1CCOC1=O` [Compound J17] to `CCC(C)C(=O)N[C@H]1CCOC1=O` (stereo partly shown) [Compound J19], the activation at 10 µM falls from 62% to 55%.

Same assay, conditions: dose-response, E. coli reporter

For `O=C(CC1CC1)N[C@H]1CCOC1=O` [Compound J25], the “RhlR agonist potency in words” value was “significantly more potent than BHL”.
In the case of `CC(C)C(=O)N[C@H]1CCOC1=O` [Compound J17], the “RhlR agonist potency in words” value is reported as “significantly more potent than BHL”.

Same assay, conditions: read-out: Maximum Activation (%)

Going from `O=C(CC1CC1)N[C@H]1CCOC1=O` [Compound J25] to `CCCCC(=O)N[C@H]1CCOC1=O` [Compound C5-AHL], the Emax falls from 95% to 80%.

`CC(C)C(=O)N[C@H]1CCOC1=O` [Compound J17] and `CCC(C)C(=O)N[C@H]1CCOC1=O` (stereo partly shown) [Compound J19] are the same in Emax: 95% for the first, 95% for the second.

Same assay, conditions: single-concentration screen at 10 μM, E. coli reporter

With `O=C(CC1CC1)N[C@H]1CCOC1=O` [Compound J25] the “RhlR agonist activity in words” value was “strong”.
With `C=CCC(=O)N[C@H]1CCOC1=O` [Compound J2] the “RhlR agonist activity in words” value was “comparably less active than their respective counterparts”.
`CC1(C(=O)N[C@H]2CCOC2=O)CC1` [Compound J27, 1-methyl-cylclopropanoyl AHL] was tested, and the “RhlR agonist activity in words” value was “inactive”.
For `O=C(N[C@H]1CCOC1=O)C1CC1` [Compound J23], the “RhlR agonist activity in words” value was “comparably less active than their respective counterparts”.
`CC(C)C(=O)N[C@H]1CCOC1=O` [Compound J17] was tested, and the “RhlR agonist activity in words” value was “comparable RhlR activation to that of BHL”.
With `CCC(C)C(=O)N[C@H]1CCOC1=O` (stereo partly shown) [Compound J19] the “RhlR agonist activity in words” value was “comparable RhlR activation to that of BHL”.
In the case of `CCCCC(=O)N[C@H]1CCOC1=O` [Compound C5-AHL], the “RhlR agonist activity in words” value is reported as “comparable RhlR activation to that of BHL”.

Biological target: T1, RhlR
Test: E. coli RhlR reporter antagonism assay vs 10 μM BHL (JLD271/pJN105R2/pSC11-rhlI*)
Type: cell-based, P. aeruginosa
Settings: E. coli reporter vs 10 μM BHL
Description: as §1
as §2, with “For RhlR antagonism assays, test compounds were competed against a concentration of BHL approximately equal to its EC50 value (10 μM).” left out
as §3
The RhlR-modulatory activity of the J library compounds was assessed in a heterologous reporter strain (E. coli JLD271 harboring plasmids pJN105R2 and pSC11-rhlI*) in order to isolate the RhlR receptor from upstream QS regulation (e.g. regulation by LasR). Thus, the extent to which compounds were directly modulating RhlR could be determined. These assays were performed by incubating compound-treated, mid-log phase E. coli reporter cells in 96-well microtiter plates, followed by Miller assay evaluation of ß-galactosidase activity.
RhlR agonism and antagonism screens of each compound were performed initially at 10 μM.

With `CC1(C(=O)N[C@H]2CCOC2=O)CC1` [Compound J27, 1-methyl-cylclopropanoyl AHL] the “RhlR antagonist activity in words” value was “capable of inhibiting RhlR activity to a statistically significant extent”.

Same assay, conditions: E. coli reporter; relative to activation of 10 μM BHL alone

`O=C(COc1ccc(I)cc1)NC1CCCC1` [RN17] was tested, and the “Maximum Inhibition (%)” value was 31%.

Same assay, conditions: read-out: % inhibition (10 μM), compound at 10 μM in the presence of 10 μM BHL; negative = agonism stronger than 10 μM BHL alone

First: O=C(COc1ccc(I)cc1)NC1CCCC1 [RN17]
Second: O=C(CC1CC1)N[C@H]1CCOC1=O [Compound J25]
The inhibition at 10 µM of the first is higher: 6% for the first, -47% for the second.

Compared with `CCCC(=O)O[C@H]1CCOC1=O` [RN7], `CCCC(=O)N[C@@H]1CCOC1=O` [RN5] is lower in inhibition at 10 µM: 4% for the first, 1% for the second.

Compared with `C=CCC(=O)N[C@H]1CCOC1=O` [Compound J2], `CCCCC(=O)N[C@H]1CCOC1=O` [Compound C5-AHL] is lower in inhibition at 10 µM: 6% for the first, -18% for the second.

First: CCCS(=O)(=O)N[C@H]1CCOC1=O [RN6]
Second: CCC(CC)C(=O)N[C@H]1CCOC1=O [Compound J22]
The inhibition at 10 µM of the first is higher: 8% for the first, 2% for the second.

Going from `CC1(C(=O)N[C@H]2CCOC2=O)CC1` [Compound J27, 1-methyl-cylclopropanoyl AHL] to `O=C(N[C@H]1CCOC1=O)C1CC1` [Compound J23], the inhibition at 10 µM falls from 2% to -2%.

First: CC(C)C(=O)N[C@H]1CCOC1=O [Compound J17]
Second: CCC(C)C(=O)N[C@H]1CCOC1=O (stereo partly shown) [Compound J19]
The inhibition at 10 µM of the first is lower: -30% for the first, -24% for the second.

Same assay, conditions: read-out: % inhibition (1 mM), compound at 1 mM in the presence of 10 μM BHL; negative = agonism stronger than 10 μM BHL alone

Compared with `O=C(CC1CC1)N[C@H]1CCOC1=O` [Compound J25], `O=C(N[C@H]1CCOC1=O)C1CC1` [Compound J23] is higher in inhibition at 1000 µM: -108% for the first, -69% for the second.

First: CCCC(=O)O[C@H]1CCOC1=O [RN7]
Second: CCCC(=O)N[C@@H]1CCOC1=O [RN5]
The inhibition at 1000 µM of the first is lower: 6% for the first, 11% for the second.

First: C=CCC(=O)N[C@H]1CCOC1=O [Compound J2]
Second: CCCCC(=O)N[C@H]1CCOC1=O [Compound C5-AHL]
The inhibition at 1000 µM of the first is lower: -110% for the first, -91% for the second.

First: CCCS(=O)(=O)N[C@H]1CCOC1=O [RN6]
Second: CCC(CC)C(=O)N[C@H]1CCOC1=O [Compound J22]
The inhibition at 1000 µM of the first is higher: 55% for the first, -66% for the second.

Going from `CC1(C(=O)N[C@H]2CCOC2=O)CC1` [Compound J27, 1-methyl-cylclopropanoyl AHL] to `CC(C)C(=O)N[C@H]1CCOC1=O` [Compound J17], the inhibition at 1000 µM falls from 24% to -112%.

`CCC(C)C(=O)N[C@H]1CCOC1=O` (stereo partly shown) [Compound J19] gave an inhibition at 1000 µM of -101%.

Same assay, conditions: read-out: % inhibition (1 mM), screened at a maximal concentration of 100 microM (solubility), in the presence of 10 μM BHL

With `O=C(COc1ccc(I)cc1)NC1CCCC1` [RN17] the inhibition at 1000 µM was 24%.
